From article PMC9848300, “Discovery of novel enasidenib analogues targeting inhibition of mutant isocitrate dehydrogenase 2 as antileukaemic agents” (Journal of Enzyme Inhibition and Medicinal Chemistry, 2023)

What was measured:
Assay type in all cases: cell-based
[1] = tested on: K-562; assay: NCI 60 antitumor screening (single dose / five doses); conditions: Homo sapiens, K562
[2] = tested on: SR; assay: as above; conditions: Homo sapiens
[3] = tested on: EKVX; assay: as above; conditions: Homo sapiens
[4] = tested on: HCC-2998; assay: NCI 60 antitumor screening (single dose); conditions: Homo sapiens; HCC-2998 (colon cancer), single dose 10 μM; read-out: Growth inhibition percentage (GI %)
Procedure: (§1) Initially, the anticancer effects of target compounds have been assessed at a single (10 μM) dose. The obtained data have been reported as mean-graph of the percent growth (G%) of the treated cancer cells. Percentage growth inhibition (GI%) is calculated (100 − G%) and pronounced in Table 1. […] Target compounds in series (III) with manipulated linkers disclosed lower potency. Superiorly, eight s-triazine derivatives from the three series (6a, 6c, 6d, 7a, 7g, 7i, 7l, and 8b) have shown potent broad-spectrum anticancer activity against most the examined cell lines, whereas most of the remaining triazine derivatives, 20 derivatives, have exerted selective anti-proliferative actions towards certain cancer cell lines (Supplementary).
(§2) The antitumor screening was performed for 60 human cancer cell lines under the protocol of NCI (www.dtp.nci.nih.gov), the Drug Evaluation Branch, Bethesda, MD. All submitted compounds were nominated based on the degree of structural diversity and computer modelling techniques for evaluation of their anticancer activity. The screening process for antineoplastic activity passes through two successive levels, starting with the assessment of target compounds at a single dose of 10 μM against 60 cancer cell lines on nine types of human tumours. These experiments were done on a triplicate following. The output from the single‐dose screening was covered as a mean graph, and then, analysed by the COMPARE program. Finally, the compounds which disclosed subpanel cancer cell growth (G %) equal to or less than 10% in at least eight cancer cell lines get to pass the assessment against the 60 cell lines at five doses (0.01–100 μM). By using GraphPad Prism version 9.0 (Graphpad Software Inc., La Jolla, CA), GI50, TGI, as well as LC50 dose‐response parameters were computed and presented for each compound (Supplementary information)[55–57].

[5] = tested on: HOP-62; assay: NCI 60 antitumor screening (single dose); conditions: Homo sapiens; HOP-62 (non-small cell lung cancer), single dose 10 μM; read-out: Growth inhibition percentage (GI %)
Procedure: as §1, §2

[6] = tested on: HS 578T; assay: NCI 60 antitumor screening (single dose); conditions: Homo sapiens; HS 578T (breast cancer), single dose 10 μM; read-out: Growth inhibition percentage (GI %)
Procedure: as §1, §2

[7] = tested on: KM 12; assay: NCI 60 antitumor screening (single dose); conditions: Homo sapiens, KM12; KM 12 (colon cancer), single dose 10 μM; read-out: Growth inhibition percentage (GI %)
Procedure: as §1, §2

[8] = tested on: NCI-H226; assay: NCI 60 antitumor screening (single dose); conditions: Homo sapiens; NCI-H226 (non-small cell lung cancer), single dose 10 μM; read-out: Growth inhibition percentage (GI %)
Procedure: as §1, §2

[9] = tested on: NCI-H460; assay: NCI 60 antitumor screening (single dose); conditions: Homo sapiens; NCI-H460 (non-small cell lung cancer), single dose 10 μM; read-out: Growth inhibition percentage (GI %)
Procedure: as §1, §2

[10] = tested on: OVCAR-3; assay: NCI 60 antitumor screening (single dose); conditions: Homo sapiens; OVCAR-3 (ovarian cancer), single dose 10 μM; read-out: Growth inhibition percentage (GI %)
Procedure: as §1, §2

[11] = tested on: OVCAR-4; assay: NCI 60 antitumor screening (single dose); conditions: Homo sapiens; OVCAR-4 (ovarian cancer), single dose 10 μM; read-out: Growth inhibition percentage (GI %)
Procedure: as §1, §2

[12] = tested on: OVCAR-5; assay: NCI 60 antitumor screening (single dose); conditions: Homo sapiens; OVCAR-5 (ovarian cancer), single dose 10 μM; read-out: Growth inhibition percentage (GI %)
Procedure: as §1, §2

[13] = tested on: OVCAR-8; assay: NCI 60 antitumor screening (single dose); conditions: Homo sapiens; OVCAR-8 (ovarian cancer), single dose 10 μM; read-out: Growth inhibition percentage (GI %)
Procedure: as §1, §2

[14] = tested on: PC-3; assay: NCI 60 antitumor screening (single dose); conditions: Homo sapiens; PC-3 (prostate cancer), single dose 10 μM; read-out: Growth inhibition percentage (GI %)
Procedure: as §1, §2

[15] = tested on: SK-OV-3; assay: NCI 60 antitumor screening (single dose); conditions: Homo sapiens; SK-OV-3 (ovarian cancer), single dose 10 μM; read-out: Growth inhibition percentage (GI %)
Procedure: as §1, §2

[16] = tested on: SNB-19; assay: NCI 60 antitumor screening (single dose); conditions: Homo sapiens; SNB-19 (CNS cancer), single dose 10 μM; read-out: Growth inhibition percentage (GI %)
Procedure: as §1, §2

[17] = tested on: TK-10; assay: NCI 60 antitumor screening (single dose); conditions: Homo sapiens; TK-10 (renal cancer), single dose 10 μM; read-out: Growth inhibition percentage (GI %)
Procedure: as §1, §2

[18] = tested on: U251; assay: NCI 60 antitumor screening (single dose); conditions: Homo sapiens, U-251; U251 (CNS cancer), single dose 10 μM; read-out: Growth inhibition percentage (GI %)
Procedure: as §1, §2

[19] = tested on: COLO 205; assay: NCI 60 antitumor screening (single dose / five doses); conditions: Homo sapiens
[20] = tested on: HCT-116; assay: as above; conditions: Homo sapiens
[21] = tested on: SF-295; assay: as above; conditions: Homo sapiens
[22] = tested on: LOX IMVI; assay: as above; conditions: Homo sapiens
[23] = tested on: SK-MEL-2; assay: as above; conditions: Homo sapiens
[24] = tested on: UACC-257; assay: as above; conditions: Homo sapiens
[25] = tested on: IGROV1; assay: as above; conditions: Homo sapiens, IGROV-1
[26] = tested on: ACHN; assay: as above; conditions: Homo sapiens
[27] = tested on: SN 12C; assay: as above; conditions: Homo sapiens, SN12C
[28] = tested on: T-47D; assay: as above; conditions: Homo sapiens, T47D

Structure (SMILES): Oc1ccccc1/C=N/Nc1nc(N/N=C/c2ccccc2O)nc(N2CCOCC2)n1 [compound 6a, 2-[(1e)-(2-{4-[(E)-2-[(2-Hydroxyphenyl)methylidene]hydrazin-1-yl]-6-(morpholin-4-yl)-1,3,5-triazin-2-yl}hydrazin-1-ylidene)methyl]phenol]
- inhibition at 10 µM ([1]; K-562 (leukaemia), single dose 10 μM, read-out: Growth inhibition percentage (GI %)): 74.6%
- GI50 ([1]; K-562, five doses (0.01–100 μM), read-out: GI50): 0.68 µM
- inhibition at 10 µM ([2]; SR (leukaemia), single dose 10 μM, read-out: Growth inhibition percentage (GI %)): 84%
- GI50 ([2]; SR, five doses (0.01–100 μM), read-out: GI50): 0.32 µM
- inhibition at 10 µM ([3]; EKVX (non-small cell lung cancer), single dose 10 μM, read-out: Growth inhibition percentage (GI %)): 77.8%
- GI50 ([3]; EKVX, five doses (0.01–100 μM), read-out: GI50): 3.28 µM
- inhibition at 10 µM [4]: 41.1%
- inhibition at 10 µM [5]: 74.3%
- inhibition at 10 µM [6]: 53%
- inhibition at 10 µM [7]: 47.3%
- inhibition at 10 µM [8]: 76.7%
- inhibition at 10 µM [9]: 67.5%
- inhibition at 10 µM [10]: 66.4%
- inhibition at 10 µM [11]: 88.2%
- inhibition at 10 µM [12]: 63%
- inhibition at 10 µM [13]: 87.3%
- inhibition at 10 µM [14]: 75.9%
- inhibition at 10 µM [15]: 88.1%
- inhibition at 10 µM [16]: 58.3%
- inhibition at 10 µM [17]: 52%
- inhibition at 10 µM [18]: 78%
- inhibition at 10 µM ([19]; COLO 205 (colon cancer), single dose 10 μM, read-out: Growth inhibition percentage (GI %)): 52%
- GI50 ([19]; COLO 205, five doses (0.01–100 μM), read-out: GI50): 5.53 µM
- inhibition at 10 µM ([20]; HCT-116 (colon cancer), single dose 10 μM, read-out: Growth inhibition percentage (GI %)): 80.8%
- GI50 ([20]; HCT-116, five doses (0.01–100 μM), read-out: GI50): 0.82 µM
- inhibition at 10 µM ([21]; SF-295 (CNS cancer), single dose 10 μM, read-out: Growth inhibition percentage (GI %)): 80.4%
- GI50 ([21]; SF-295, five doses (0.01–100 μM), read-out: GI50): 7.67 µM
- inhibition at 10 µM ([22]; LOX IMVI (melanoma), single dose 10 μM, read-out: Growth inhibition percentage (GI %)): 96%
- GI50 ([22]; LOX IMVI, five doses (0.01–100 μM), read-out: GI50): 0.28 µM
- inhibition at 10 µM ([23]; SK-MEL-2 (melanoma), single dose 10 μM, read-out: Growth inhibition percentage (GI %)): 28%
- GI50 ([23]; SK-MEL-2, five doses (0.01–100 μM)): 6.06 µM
- inhibition at 10 µM ([24]; UACC-257 (melanoma), single dose 10 μM, read-out: Growth inhibition percentage (GI %)): 46.7%
- GI50 ([24]; UACC-257, five doses (0.01–100 μM), read-out: GI50): 6.53 µM
- inhibition at 10 µM ([25]; IGROV1 (ovarian cancer), single dose 10 μM, read-out: Growth inhibition percentage (GI %)): 63%
- GI50 ([25]; IGROV1, five doses (0.01–100 μM), read-out: GI50): 0.97 µM
- inhibition at 10 µM ([26]; ACHN (renal cancer), single dose 10 μM, read-out: Growth inhibition percentage (GI %)): 71.9%
- GI50 ([26]; ACHN, five doses (0.01–100 μM), read-out: GI50): 1.58 µM
- inhibition at 10 µM ([27]; SN 12C (renal cancer), single dose 10 μM, read-out: Growth inhibition percentage (GI %)): 72.8%
- GI50 ([27]; SN 12C, five doses (0.01–100 μM), read-out: GI50): 18.3 µM
- inhibition at 10 µM ([28]; T-47D (breast cancer), single dose 10 μM, read-out: Growth inhibition percentage (GI %)): 53.9%
- GI50 ([28]; T-47D, five doses (0.01–100 μM), read-out: GI50): 3.34 µM
